target: ATX (Homo sapiens (Human), UniProt Q13822); assay: ATX enzyme inhibition assay (Amplex UltraRed/choline oxidase/HRP, 16:0 Lyso PC substrate); format: biochemical; details: assay buffer pH 7.5; read-out: IC50 (nM) pH 7.5
Description: All compounds were prepared as a 10 mM DMSO stock solution.
Solutions at pH 8.5 and pH 7.5 were prepared respectively with the following formulations:
All compounds, including the positive control compound, were diluted 5-fold from 10 mM to 2 mM with DMSO in the first step. The mixture was then diluted to 100 μM with 1× assay buffer.
3. Separate Detection of Compounds with 1× Assay Buffer at Two pH Values:
a) 5 μL of 10× compound diluent was added to a 384-well plate (Greiner 781209) using a motorized pipette (see the “experimental preparation” step). 5 μL of 1× assay buffer containing 5% DMSO was added to both negative and positive control wells. The plate was centrifuged at 300 rpm for 1 minute at room temperature.
b) 2× ATX ([…]) was prepared with 1× assay buffer, and 25 μL of 2× ATX was added to the plate using a motorized pipette. 25 μL of 1× assay buffer was added to the negative control wells and 25 μL of 2× ATX was added to the positive control wells. The plate was centrifuged at 300 rpm for 1 minute at room temperature.
The plate was incubated at room temperature for 10 minutes.
c) 2.5× working solution containing Amplex UltraRed reagent (125 μM), HRP (2.5 U/mL), choline oxidase (1.25 U/mL), and 16:0 Lyso PC (75 μM) was prepared with 1× assay buffer. 20 μL of 2.5× working solution was added to all reaction wells using a motorized pipette. The plate was centrifuged at 300 rpm for 1 minute at room temperature.
d) The plate was detected by SpectraMax with the following procedures: fluorescence mode; excitation at 550 nm; emission at 590 nm; kinetics; read once every 2 minutes; read continuously for 60 minutes.
The calculation formula of % inhibition (i.e., % inhibition rate) was as follows: […]
V0: X-axis is taken as 0 to 30 minutes, Y-axis is taken as fluorescence readings, and the slope corresponding to the straight line fitted by the software GraphPad Prism 8 is the initial response rate.
V0max: Average V0 of the positive control wells in the plate.
V0min: Average V0 of the negative control wells in the plate.
The IC50 of the compounds was calculated from a nonlinear regression line (dose-initial response rate) fitted by % inhibition and log value of compound concentration using the software GrahPad Prism 8.

IC50	SMILES
656 nM	CN(c1nc(-c2ccc(F)cc2)c(C#N)s1)c1c2c(nc3c(F)cc(N4CCN(CC(=O)N5CC(F)(F)C5)CC4)cc13)CCC2 [Example A15]
132 nM	CN(c1nc(-c2ccc(F)cc2)c(C#N)s1)c1c2c(nc3c(F)cc(N4CC5(CN(C(=O)[C@@H]6CCOC6)C5)C4)cc13)CCO2 [Example C11]

same assay, conditions: assay buffer pH 8.5; read-out: IC50 (nM) pH 8.5

SMILES	IC50
CN(c1nc(-c2ccc(F)cc2)c(C#N)s1)c1c2c(nc3c(F)cc(N4CCN(CC(=O)N5CC6(CC(O)C6)C5)CC4)cc13)CC2 [Example F2]	65.2 nM
CN(c1nc(-c2ccc(F)cc2)c(C#N)s1)c1c2c(nc3c(F)cc(N4CCN(CC(=O)N5CC6(CCC(O)CC6)C5)CC4)cc13)CC2 [Example F5]	19.9 nM
CN(c1nc(-c2ccc(F)cc2)c(C#N)s1)c1c2c(nc3c(F)cc(N4CCN(CC(=O)N5CC(F)(F)C5)CC4)cc13)CCC2 [Example A15]	134 nM
C[C@H]1CN(CC(=O)N2CC(O)C2)CCN1c1cc(F)c2nc3c(c(N(C)c4nc(-c5ccc(F)cc5)c(C#N)s4)c2c1)COC3 [Example A30]	22.1 nM
CN(c1nc(-c2ccc(F)cc2)c(C#N)s1)c1c2c(nc3c(F)cc(N4CC5(CN(C(=O)C6(O)CCOCC6)C5)C4)cc13)[C@H](O)CC2 (single isomer, unassigned) [Example E15-b]	18.5 nM
CN(c1nc(-c2ccc(F)cc2)c(C#N)s1)c1c2c(nc3c(F)cc(N4CCN(CC(=O)N5CC(O)C5)CC4)cc13)CCCC2 [Example A27]	111 nM
CN(c1nc(-c2ccc(F)cc2)c(C#N)s1)c1c2c(nc3c(F)cc(N4CCN(CC(=O)N5CC(C)(O)C5)CC4)cc13)COC2 [Example A35]	66.8 nM
CN(c1nc(-c2ccc(F)cc2)c(C#N)s1)c1c2c(nc3c(F)cc(N4CCN(CC(=O)N5CC6(CCOCC6)C5)CC4)cc13)CC2 [Example F3]	60.6 nM
N#Cc1cc(Br)cc(F)c1NC1=CCCC1=O [E1-2]	18.2 nM
C[C@@H]1CN(c2cc(F)c3nc4c(c(N(C)c5nc(-c6ccc(F)cc6)c(C#N)s5)c3c2)COC4)CCN1CC(=O)N1CC(O)C1 [Example A32]	94.3 nM
CN(c1nc(-c2ccc(F)cc2)c(C#N)s1)c1c2c(nc3c(F)cc(N4CC5(CN(C(=O)C(C)(C)O)C5)C4)cc13)COC2 [Example C21]	49.1 nM
CN(c1nc(-c2ccc(F)cc2)c(C#N)s1)c1c2c(nc3c(F)cc(N4CC5(CN(C(=O)[C@@H]6CCOC6)C5)C4)cc13)CCO2 [Example C11]	61.9 nM
CN(c1nc(-c2ccc(F)cc2)c(C#N)s1)c1c2c(nc3c(F)cc(N4CC5(CN(CC(=O)N6CC(C)(O)C6)C5)C4)cc13)COC2 [Example A34]	446 nM
CN(c1nc(-c2ccc(F)cc2)c(C#N)s1)c1c2c(nc3c(F)cc(N4CC5(CN(CC(=O)N6CC(CO)C6)C5)C4)cc13)COC2 [Example A28]	226 nM
CN(c1nc(-c2ccc(F)cc2)c(C#N)s1)c1c2c(nc3c(F)cc(N4CCN(CC(=O)N5CC(O)C5)CC4)cc13)C(=O)CC2 [Example E2]	3.46 nM
CN(c1nc(-c2ccc(F)cc2)c(C#N)s1)c1c2c(nc3c(F)cc(N4CCN(CC(=O)NO)CC4)cc13)CC2 [Example F1]	44.9 nM
C[C@@H]1CN(CC(=O)N2CC(O)C2)CCN1c1cc(F)c2nc3c(c(N(C)c4nc(-c5ccc(F)cc5)c(C#N)s4)c2c1)COC3 [Example A31]	26.9 nM

The next lines start with the values.

IC50	SMILES
23.4 nM	CN1CC[C@H](C(=O)N2CC3(C2)CN(c2cc(F)c4nc5c(c(N(C)c6nc(-c7ccc(F)cc7)c(C#N)s6)c4c2)CC[C@@H]5O)C3)C1 (single isomer, unassigned) [Example E18-a]
20.4 nM	CN(c1nc(-c2ccc(F)cc2)c(C#N)s1)c1c2c(nc3c(F)cc(N4CC5(CN(C(=O)C6(O)CCOC6)C5)C4)cc13)C(O)CC2 (centres unmarked) [Example E19]
37.1 nM	CN1CC[C@H](C(=O)N2CC3(C2)CN(c2cc(F)c4nc5c(c(N(C)c6nc(-c7ccc(F)cc7)c(C#N)s6)c4c2)CC[C@H]5O)C3)C1 (single isomer, unassigned) [Example E18-b]
23.7 nM	CN(c1nc(-c2ccc(F)cc2)c(C#N)s1)c1c2c(nc3c(F)cc(N4CC5(CN(C(=O)[C@H]6CCOC6)C5)C4)cc13)[C@@H](O)CC2 (single isomer, unassigned) [Example E5-b]
21.8 nM	CN(c1nc(-c2ccc(F)cc2)c(C#N)s1)c1c2c(nc3c(F)cc(N4CC5(CN(C(=O)C6CCOC6)C5)C4)cc13)C(O)CC2 (centres unmarked) [Example E5]
17 nM	CN(c1nc(-c2ccc(F)cc2)c(C#N)s1)c1c2c(nc3c(F)cc(N4CC5(CN(C(=O)[C@@H]6COC[C@H]6O)C5)C4)cc13)[C@H](O)CC2 (single isomer, unassigned) [Example E20-b]
25.7 nM	CN(c1nc(-c2ccc(F)cc2)c(C#N)s1)c1c2c(nc3c(F)cc(N4CC5(CN(C(=O)[C@H]6COC[C@@H]6O)C5)C4)cc13)[C@@H](O)CC2 (single isomer, unassigned) [Example E20-c]
21.5 nM	CN(c1nc(-c2ccc(F)cc2)c(C#N)s1)c1c2c(nc3c(F)cc(N4CC5(CN(C(=O)N6CCCC6)C5)C4)cc13)[C@H](O)CC2 (single isomer, unassigned) [Example E17-b]
18.9 nM	C[C@H]1CN(CC(=O)N2CC(O)C2)CCN1c1cc(F)c2nc3c(c(N(C)c4nc(-c5ccc(F)cc5)c(C#N)s4)c2c1)CC[C@H]3O (single isomer, unassigned) [Example E7-b]
97.6 nM	CN(c1nc(-c2ccc(F)cc2)c(C#N)s1)c1c2c(nc3c(F)cc(N4CC5(CN(CC(=O)N6CC[C@H](O)C6)C5)C4)cc13)C(O)CC2 (some centres unmarked) [Example E12]
29.2 nM	CN(c1nc(-c2ccc(F)cc2)c(C#N)s1)c1c2c(nc3c(F)cc(N4CC5(CN(C(=O)[C@H]6COC[C@@H]6O)C5)C4)cc13)[C@H](O)CC2 (single isomer, unassigned) [Example E20-d]
75.3 nM	CN(c1nc(-c2ccc(F)cc2)c(C#N)s1)c1c2c(nc3c(F)cc(N4CC5(CN(CC(=O)N6CC(O)C6)C5)C4)cc13)CCO2 [Example A23]
18.1 nM	CN(c1nc(-c2ccc(F)cc2)c(C#N)s1)c1c2c(nc3c(F)cc(N4CC5(CN(C(=O)[C@@H]6COC[C@H]6O)C5)C4)cc13)[C@@H](O)CC2 (single isomer, unassigned) [Example E20-a]
23.5 nM	CN(c1nc(-c2ccc(F)cc2)c(C#N)s1)c1c2c(nc3c(F)cc(N4CC5(CN(C(=O)C6COCC6O)C5)C4)cc13)C(O)CC2 (centres unmarked) [Example E20]
18.3 nM	C[C@@H]1CN(CC(=O)N2CC(O)C2)CCN1c1cc(F)c2nc3c(c(N(C)c4nc(-c5ccc(F)cc5)c(C#N)s4)c2c1)CC[C@@H]3O (single isomer, unassigned) [Example E6-a]
23 nM	CN(c1nc(-c2ccc(F)cc2)c(C#N)s1)c1c2c(nc3c(F)cc(N4CC5(CN(C(=O)C(C)(C)O)C5)C4)cc13)[C@H](O)CC2 (single isomer, unassigned) [Example E16-b]
